The source of these data is article PMC5231411 (Science signaling, 2016).

The subject of series [1] is C57BL/6 mice. Kind of series: Chloroquine phosphate-induced scratching. Type of series: in vivo, mouse. The note with it: NorBNI 10 mg/kg ip 24 hours prior; triazole 1.1 1 mg/kg sc.
Series [2] relates to male Fisher 344 rats. In words: Suppression of VTA ICSS by 1.8% lactic acid. The series is classed as in vivo, rat. The note with it: triazole 1.1 24 mg/kg.
The subject of series [3] is male Fisher 344 rats. Particulars: NorBNI 32 mg/kg 24 hours prior; U50,488H 6 mg/kg.
The subject of series [4] is C57BL/6 mice. Kind of series: Warm water tail immersion. Type of series: in vivo, mouse.
Series [5] has as its target KOR (OPRK1) βarrestin2 recruitment (Homo sapiens, UniProt P41145). In words: βarrestin2 enzyme fragment complementation assay. Type of series: cell-based.
The conditions of series [6]: after systemic dosing; cited from earlier work.
Series [7] deals with dopamine release in nucleus accumbens. The note with it: mouse brain slices.
Series [8] concerns KOR. Particulars: compared to reference agonist U69,593; cited from earlier work.
In series [9] the target is human KOR (Homo sapiens, UniProt P41145). The series is classed as biochemical.
Sequence of human KOR (P41145 whole entry): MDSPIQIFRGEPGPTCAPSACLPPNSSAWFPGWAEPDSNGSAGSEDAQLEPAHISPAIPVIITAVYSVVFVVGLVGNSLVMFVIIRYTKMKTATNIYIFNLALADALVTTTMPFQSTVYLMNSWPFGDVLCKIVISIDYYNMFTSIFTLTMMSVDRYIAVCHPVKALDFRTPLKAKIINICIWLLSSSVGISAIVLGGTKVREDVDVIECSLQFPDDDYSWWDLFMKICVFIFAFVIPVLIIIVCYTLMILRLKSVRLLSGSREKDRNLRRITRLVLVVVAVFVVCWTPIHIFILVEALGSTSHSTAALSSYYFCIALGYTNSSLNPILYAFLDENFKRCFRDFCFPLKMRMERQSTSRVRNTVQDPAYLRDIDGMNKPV
In series [10] the test system is KOR. Kind of series: Bias analysis, G protein. The note with it: reference U50,488H.
In series [11] the test system is dopamine concentration in nucleus accumbens. In words: Microdialysis of nucleus accumbens dopamine in freely moving mice. The series is classed as in vivo, mouse. The note with it: triazole 1.1 15 mg/kg ip.
Series [12] relates to C57BL/6J male mice. The note with it: mouse, in vivo.
Series [13] addresses striatal KOR (Mus musculus, UniProt P33534). The series is classed as binding.
The target of series [14] is KOR in mouse striatum (Mus musculus, UniProt P33534). Kind of series: [35S]GTPγS binding in mouse striatal membranes. The series is classed as biochemical. Background: GTPγS is a poorly hydrolysed GTP analogue; its binding reports G protein activation.
Sequence of KOR in mouse striatum (P33534 whole entry): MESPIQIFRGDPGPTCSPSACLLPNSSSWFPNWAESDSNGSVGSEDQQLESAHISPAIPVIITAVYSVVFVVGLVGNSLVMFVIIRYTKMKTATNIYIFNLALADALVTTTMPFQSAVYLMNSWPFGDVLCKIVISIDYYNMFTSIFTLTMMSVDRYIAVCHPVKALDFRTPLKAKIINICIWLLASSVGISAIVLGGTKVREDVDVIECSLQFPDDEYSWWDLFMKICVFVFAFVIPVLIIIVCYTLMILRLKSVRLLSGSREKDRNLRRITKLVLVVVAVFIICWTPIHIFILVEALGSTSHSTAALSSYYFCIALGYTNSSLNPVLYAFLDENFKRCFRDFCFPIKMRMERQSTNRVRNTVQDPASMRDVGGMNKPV
Series [15] has as its system KOR. Particulars: cited from earlier work.
Series [16] concerns mice. The note with it: mouse, in vivo; cited from earlier work.
In series [17] the test system is mice. Particulars: cited from earlier work.

A word on the EC50: it is the concentration giving half of the maximal effect. Read a high EC50 as a need for much substance.

Sequence of KOR (OPRK1) βarrestin2 recruitment (P41145 whole entry, the tested form may be a part): as the sequence (P41145 whole entry) above
Sequence of striatal KOR (P33534 whole entry): as the sequence (P33534 whole entry) above

As for `Oc1ccc2c3c1O[C@H]1c4[nH]c5c(c4C[C@@]4(O)[C@@H](C2)N(CC2CC2)CC[C@]314)C[C@@]1(O)[C@H]2Cc3ccc(O)c4c3[C@@]1(CCN2CC1CC1)[C@H]5O4` [NorBNI, Norbinaltorphimine, reference compound], in [1], the “Blockade of antipruritic effects of triazole 1.1” value is “blocked the antipruritic effects of triazole 1.1”. For the same compound, the “Blockade of analgesic effect of triazole 1.1 on lactic acid-suppressed ICSS” value in series [2] (NorBNI 32 mg/kg prior) is on record as “completely blocked”. The “Blockade of U50,488H effects on ICSS” value in series [3] is on record as “blocked”. Also, the “Antagonism of agonist-induced antinociception (tail flick)” value in [4] (NorBNI 15 mg/kg ip, 10 min before U50,488H or triazole 1.1) was “fully antagonized the antinociception produced by both compounds”.

Turning to `Cc1ccc(CSc2nnc(-c3ccccn3)n2Cc2ccco2)cc1C(F)(F)F` [Triazole 1.1, 2-(4-(furan-2-ylmethyl)-5-((4-methyl-3-(trifluoromethyl)benzyl)thio)-4H-1,2,4-triazol-3-yl)pyridine], in series [5], the “βarrestin2 enzyme fragment complementation assay Emax” value is given as 98 ± 4%. Further, in series [2] ([…] lactic acid ip, ketoprofen 1 mg/kg sc, U50,488H 6 mg/kg), the “Effect on lactic acid-induced suppression of ICSS (EF50 and Rmax)” value is “suppressed the effect of lactic acid compared to vehicle administration”. Moreover, the “Brain penetration (tissue content in whole brain)” value in series [6] was “brain-penetrant”. In series [7] (10-1000 nM), the “Effect on evoked dopamine release, nucleus accumbens core” value is “no measureable decreases in the core” and the “Effect on evoked dopamine release, nucleus accumbens shell” value is “a modest decrease in the shell only at the highest concentration tested”. Further, in series [7] (10-1000 nM cumulative), the “EC50 for decrease in dopamine release, nucleus accumbens core” value is recorded as “nonconvergence of curves” and the “EC50 for decrease in dopamine release, nucleus accumbens shell” value is “nonconvergence of curves”. Also, the “Preference for G protein signaling over βarrestin2 recruitment” value in series [8] is listed as “displays a preference for G protein signaling over βarrestin2 recruitment”. The “[35S]GTPγS binding assay Emax” value in [9] came out at 101 ± 5%. For the same compound, in series [10] (G protein/βarrestin2), the “Bias factor G/β (10^ΔΔLogR)” value was determined as 28. The “ΔΔLogR (ΔLogR of [35S]GTPγS − ΔLogR of βarrestin2 EFC)” value in series [10] (with 95% CI) was 1.44 (1.29 to 1.60). In addition, in [11], the “Effect on dopamine concentration in nucleus accumbens (microdialysis)” value is recorded as “did not significantly affect dopamine concentrations”. Further, in series [12], the “Locomotor activity (ambulation) in open field over 1 hour” value is reported as “did not affect locomotor activity at any of the doses tested”. In addition, the “Reduction of specific [3H]U69,593 binding in striatum compared to untreated mice” value in series [13] was determined as 40%. Besides, the EC50 in [14] amounted to 0.497 ± 0.034 µM. Moreover, the “Response latency (%MPE) in warm water tail flick assay” value in [4] (C57BL/6 mice, sc, 20 min after injection, 10-s cutoff) is reported as “produced an increase in response latency in a dose-dependent manner”. Also, the “Antinociceptive efficacy in KOR-KO mice (tail flick)” value in series [4] (KOR-KO mice, 30 mg/kg, ip) is reported as “Neither drug had efficacy in KOR-KO mice”.

On to RB-64, for which the “Bias for G protein signaling over βarrestin2 recruitment” value in series [15] was “displays bias for G protein signaling over βarrestin2 recruitment”. Moreover, the “Antinociceptive efficacy and locomotor activity” value in [16] is on record as “preserves antinociceptive efficacy without decreasing locomotor activity”. Moreover, the “Conditioned place aversion (CPA)” value in series [17] is recorded as “produces conditioned place aversion (CPA) in mice”.
